Data set [1] relates to NG isolate from the Phase 2 clinical trial with ParC D86N mutation. The data set is classed as cell-based, Neisseria gonorrhoeae. As for the experimental part:
10 mL of an initial bacterial density of 10^6 colony forming units (CFU)/mL was inoculated into the hollow-fiber cartridge (Fibercell Systems, Frederick, Md.), utilizing modified FB medium.
Samples were collected for observation of simulated pharmacokinetic profiles and enumeration of bacterial burden over the study duration. All bacterial samples were plated on drug-free and agar supplemented with 2×the agar MIC value of each respective challenge compound.

Data set [2] is described as follows: Single-dose PK (saliva, urine, plasma) in participants with hepatic impairment and matched controls. The data set is classed as in vivo, human. As to conditions: 1500 mg orally. As for the experimental part:
(§1) Gepotidacin exposures were assessed in plasma and other matrices, such as urine, saliva, epithelial lining fluid (ELF), Alveolar Macrophages (AM), cervix, rectum and pharynx, as follows: • 1. […] Urine, plasma, cervix, rectum and pharynx swabs: • In a Phase 2a, single-center, single-arm, open-label study in the Unites States from July 2018 to January 2019 (see Overcash et al., Open Forum Infectious Diseases, Volume 6, Issue Supplement 2, October 2019, Page S539, https://doi.org/10.1093/ofid/ofz360.1343, incorporated herein by reference in its entirety), a total of 22 female participants with uncomplicated Urinary Tract Infection (uUTI) were enrolled and evaluated for pharmacokinetics (PK), safety, and clinical efficacy. […] Gepotidacin exposures in urine, cervix, rectum and pharynx were assessed.
(§2) Saliva, Urine and Plasma concentrations were determined after administration of gepotidacin 750 mg IV (healthy and renally impaired subjects) and 1500 mg orally (healthy and hepatically impaired subjects, as well as uUTI patients). […]

Data set [3] in a line: Phase 2a study in female participants with uUTI: urine, plasma, cervix, rectum and pharynx swab PK and safety. The data set is classed as in vivo, human. As for the experimental part: as §1, §2
Data set [4] in a line: Plasma and pulmonary (ELF, AM) pharmacokinetics after intravenous gepotidacin in healthy adult subjects. The data set is classed as in vivo, human. As to conditions: single IV infusion 1000 mg over 2 hours. On the procedure: as §1
Plasma, Epithelial Lining Fluid (ELF) and Alveolar Macrophage (AM) PK were assessed following a single IV infusion of 1000 mg gepotidacin over 2 hours. […]

Data set [5] is described as follows: Safety and pharmacokinetics in healthy adults and adolescents (Example 3). The data set is classed as in vivo, human. On the procedure:
Healthy adults and adolescents within the age ranges of 19-64 and 12-17 years old, respectively, participated in the study.
In Part 1 of the study, gepotidacin was administered with food to healthy adults 18 years) in period 1 (1500 mg oral single dose), followed by period 2 (3000 mg×2 oral doses Q12 h) and period 3 (3000 mg×2 oral doses Q6 h).
In Part 2 of the study, gepotidacin was administered with food to adolescents (12 to <18 years) at the same dose regimens as period 1 (1500 mg oral single dose) and period 3 (3000 mg×2 oral doses Q6 h).

Another data set relates to Neisseria gonorrhoeae. As to conditions: cited from earlier work.
The nature of data set [6]: Single-dose PK (saliva, urine, plasma) in subjects with renal impairment and matched controls. The data set is classed as in vivo, human. On the procedure:
Gepotidacin exposures were assessed in plasma and other matrices, such as urine, saliva, epithelial lining fluid (ELF), Alveolar Macrophages (AM), cervix, rectum and pharynx, as follows: • 1. Plasma, Epithelial Lining Fluid (ELF) and Alveolar Macrophage (AM) samples: A study to evaluate plasma and pulmonary pharmacokinetics (PK) following intravenous administration of gepotidacin in healthy adult subjects was conducted (see M Hossain, EF Dumont. Population Pharmacokinetic Modeling of Plasma and Epithelial Lining Fluid Data for a Novel Antimicrobial Compound. 54th Annual Interscience Conference on Antimicrobial Agents and Chemotherapy Meeting, 5-9 September 2014, Washington, D.C., USA, incorporated herein by reference in its entirety) • 2. Saliva, Urine and plasma samples: • a. A single-dose study to assess the PK of oral gepotidacin in male and female adult participants with varying degrees of hepatic impairment and in matched control participants with normal hepatic function (J. Hands et al. Pharmacokinetics of Gepotidacin in Subjects with Hepatic Impairment. ID Week, 2-6 Oct. 2019, Washington D.C., USA, incorporated herein by reference in its entirety) • b. A single-dose study to assess the PK of gepotidacin in adult subjects with varying degrees of renal impairment and in matched control subjects with normal renal function • 3. Urine, plasma, cervix, rectum and pharynx swabs: • In a Phase 2a, single-center, single-arm, open-label study in the Unites States from July 2018 to January 2019 (see Overcash et al., Open Forum Infectious Diseases, Volume 6, Issue Supplement 2, October 2019, Page S539, https://doi.org/10.1093/ofid/ofz360.1343, incorporated herein by reference in its entirety), a total of 22 female participants with uncomplicated Urinary Tract Infection (uUTI) were enrolled and evaluated for pharmacokinetics (PK), safety, and clinical efficacy. Participants were confined to the clinic from baseline (Days −1 to 1 predose) through on-therapy (Days 1 to 5) and returned as outpatients for test-of-cure (TOC; Days 10 to 13) and follow-up (Day 28±3). Participants received oral gepotidacin 1,500 mg twice daily (BID) for 5 days. […] The majority of participants were white, age ranged from 19 to 60 years, and body mass index ranged from 20.9 to 37.9 kg/m^2. The number of past uUTI episodes ranged from 0 to 10 over the past 12 months across participants; the majority of participants reported episodes. […] Gepotidacin exposures in urine, cervix, rectum and pharynx were assessed.
as §2

[7] abbreviates: Period 1, 1500 mg oral single dose.

With `CO/N=C(\C(=O)N[C@@H]1C(=O)N2C(C(=O)O)=C(CSc3nc(=O)c(=O)[nH]n3C)CS[C@H]12)c1csc(N)n1` [ceftriaxone, reference compound], the “performance of control in hollow fibre infection model” value in data set [1] (simulated ciprofloxacin 0.5 g oral, ceftriaxone 0.25 g intramuscular, isolate ciprofloxacin-resistant, ceftriaxone-susceptible) is on record as “performed as expected”.

For `O=c1ccc2ncc(=O)n3c2n1C[C@H]3CN1CCC(NCc2cc3c(cn2)OCCC3)CC1` [gepotidacin, (2R)-2-({4-[(3,4-Dihydro-2H-pyrano[2,3-c]pyridin-6-ylmethyl)amino]-1-piperidinyl}methyl)-1,2-dihydro-3H,8H-2a,5,8a-triazaacenaphthylene-3,8-dione], the figures for the “urinary exposure (AUC[0-48]) relative to matched healthy controls” value in data set [2] (moderate hepatic impairment) and in data set [2] (severe hepatic impairment) were “approximately 3.2 fold” and approximately 3.9 fold, respectively. In addition, the “rank order of gepotidacin free-drug concentrations” value in data set [3] (1500 mg BID, uUTI patients, swabs and plasma) is given as “highest in rectal tissue; followed by cervical tissue, which was similar to plasma concentrations; followed by pharyngeal tissue”. For the same compound, the “discontinuations due to adverse events” value in data set [3] (oral 1,500 mg BID for 5 days, 22 female uUTI participants) was “no discontinuations due to adverse events”. Further, the “AM AUC(0-12) relative to ELF” value in data set [4] is given as approximately 97 fold. Besides, in data set [4], the “AM Cmax relative to ELF” value was “approximately 120 fold”. Further, in data set [5] (1500 mg oral single dose, adults and adolescents, few mild GI AEs), the tolerability result was “generally well tolerated”. Besides, the “maximum concentration (Cmax), adolescents compared to adults” value in data set [5] (setting [7]) is reported as “similar”. Also, the “median area under the curve (AUC), adolescents compared to adults” value in data set [5] (setting [7]) is “slightly higher”. In addition, the “AUC following the second dose, adolescents versus adults” value in data set [5] (Period 3, 3000 mg x 2 Q6 h) is reported as “higher”. Further, the “Cmax following the second dose, adolescents versus adults” value in data set [5] (Period 3, 3000 mg x 2 Q6 h) is “similar”. The “subjects above the Cmax value of potential clinical concern” value in data set [5] (adolescents, 3000 mg x 2 Q6 h) turned out to be 58%; in data set [5] (adults, 3000 mg x 2 Q6 h), 46%; in data set [5] (adults, 3000 mg x 2 Q12 h), 15%. In data set [5] (adults, 3000 mg), the “AUC0-t following the first dose, Q12 h versus Q6 h” value was “similar”. The “accumulation ratios, Q6 h compared to Q12 h” value in data set [5] (adults, 3000 mg x 2) was “Higher”. Further, the “safety issues related to QT or AchE-I” value in data set [5] (in vivo) is reported as “No observed safety issues related to QT or AchE-I”. Moreover, in data set [1] (gepotidacin-resistant subpopulation on Day 7), the “doses preventing amplification of resistance within the system” value was found to be 4.5 g. Besides, the “total daily doses that prevented resistance amplification to gepotidacin” value in data set [1] (including 2 x 3 g doses 8 or 12 hours apart) is not below 4500 mg. For the same compound, the “doses sterilizing the system over the seven-day period” value in data set [1] (simulated single oral dose free-drug plasma profiles, 0.75 to 12 g) is not below 4.5 g. Also, in the data set with Neisseria gonorrhoeae (number of the 8 participants with D86N-positive baseline urogenital NG isolates), the “microbiological successes (bacterial eradication)” value is on record as 5. Further, in the data set on Neisseria gonorrhoeae (single oral doses of 1.5 g and 3 g), the “efficacy (bacterial eradication) against urogenital infection caused by NG” value is recorded as not below 95%. Moreover, the safety signals result in the data set on Neisseria gonorrhoeae (single oral doses of 1500 and 3000 mg) is given as “no unexpected safety signals”. Besides, the “participants who failed therapy at the urogenital body site” value with Neisseria gonorrhoeae (total number, single oral 1500 or 3000 mg) is listed as 3. For the same compound, the “gepotidacin dose removed in the urine (fe %)” value in data set [6] (ESRD subjects not on hemodialysis) turned out to be 7.9%; in data set [6] (moderate renal impairment subjects), 22.1%; in data set [6] (normal renal function subjects), 37.4%. For the same compound, the “gepotidacin dose excreted in the urine” value in data set [6] (ESRD subjects on hemodialysis) is “Less than 2%”.

The record behind these values is US20210308131A1, “Treatment Regimen” (GlaxoSmithKline Intellectual Property Development Limited, priority 2020, published 2021).
